The values that follow come from US20060025458A1, “Alkylammonium compounds as antifungal and antitrypanosomal agents” (University of Connecticut, priority 2004, published 2006).

Data set [1] deals with choline transport in the wild-type strain of S. cerevisiae. The experiment in a line: [methyl-3H]-choline uptake in wild-type S. cerevisiae. The format is cell-based, Saccharomyces cerevisiae. On the procedure:
Uptake Assays: Yeast strains were grown in synthetic complete medium supplemented as required to maintain cell growth to an optical density of 0.55-0.65 at 600 nm. Cells were harvested by centrifugation at 3,200×g for 10 min at 4° C., washed twice in cold PBS and resuspended in nitrogen-free medium (SD without ammonium sulfate). […] After 3 min incubation at 30° C. with shaking, transport was immediately stopped by filtration through Whatman GF/C glass microfiber paper. The filters were washed three times with 5 ml ice-cold PBS, air dried, and analyzed in a scintillation counter. For time course uptake, 3-4×10^7 cells were incubated at 30° C. in 1 ml of nitrogen-free medium in the presence of 25 nM [^3H]-T16 (69 Ci/mmol) for different time periods (1, 2, 3, 4, 5, 7, 10 and 15 min) after which 5 ml of cold PBS was added to stop the reaction. Kinetic parameters were determined after 4 min of incubation at 30° C. in the presence of [^3H]-T16 at concentrations ranging from 25 nM to 75 μM (69 Ci - 23 mCi/mol). The samples were centrifuged at 4° C. for 10 min at 1,200×g, the supernatants were discarded and the cells were then resuspended in 5 ml of cold PBS. The reaction was terminated by filtering the cell suspension through GF/C membranes that were pretreated with 15 ml of 0.05% polyethyleneimine (PEI). The filters were washed twice with 5 ml of cold PBS, air dried, and analyzed in a scintillation counter. The cellular accumulation ratio (CAR) was calculated as previously described for T16 and G25 (Biagini, et al., 2003; Wengelnik, et al., 2002).

The subject of data set [2] is P. falciparum-infected erythrocytes. As to conditions: after 3 h incubation; cited from earlier work.
In data set [3] the target is T1, recombinant PtdSer decarboxylase PfPsd1 (Plasmodium falciparum, UniProt Q9GPP8).
T1 construct: made in house
T1 sequence (Q9GPP8 1-362): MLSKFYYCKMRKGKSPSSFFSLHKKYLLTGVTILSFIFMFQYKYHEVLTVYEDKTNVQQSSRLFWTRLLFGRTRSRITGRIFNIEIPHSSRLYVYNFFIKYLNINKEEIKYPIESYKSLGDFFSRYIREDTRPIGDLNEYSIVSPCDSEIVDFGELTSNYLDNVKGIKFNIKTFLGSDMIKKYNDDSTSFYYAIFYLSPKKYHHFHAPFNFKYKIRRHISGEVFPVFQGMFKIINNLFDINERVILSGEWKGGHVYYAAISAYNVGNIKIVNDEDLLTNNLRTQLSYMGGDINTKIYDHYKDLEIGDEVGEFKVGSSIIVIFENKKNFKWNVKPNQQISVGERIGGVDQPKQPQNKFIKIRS
The experiment in a line: PtdSer decarboxylase assay with recombinant enzyme. It counts as biochemical. As to conditions: increasing concentrations of G25. On the procedure: FIG. 11A. Effect of G25 on the activity of purified recombinant PfPsd1 enzyme. PfPsd1 activity was determined as described in Materials and Methods by measuring the amount of [^14C]-PtdEtn formed from PtdSer. TLC analysis of PfPsd1-mediated conversion of PtdSer into PtdEtn in the absence and presence of increasing concentrations of G25 was performed.
FIG. 11B. Values are means±standard deviation of triplicate determination of two independent experiments.
Recombinant P. falciparum PtdSer decarboxylase was purified as described by Baunaure and colleagues (Baunaure, et al., 2004) The assay mixture (0.3 ml) contained 0.1 M potassium phosphate buffer (pH 6.8), 0.06% Triton X-100 (w/v), 200 μM L-[dipalmitoyl]phosphatidyl[3-^14C]-serine (1.35 mCi/mmol; Amersham), and the enzyme fraction containing recombinant protein of P. falciparum (240 μg). After incubation at 37° C. for 1 hour, the reaction was terminated by the addition of 400 μl chloroform. Chloroform-soluble materials were extracted, dried, and then dissolved in chloroform/methanol (9:1, v/v). Phospholipids were separated by Thin Layer Chromatography as described above. The radioactive phospholipids were localized and identified using appropriate standards, and radioactivity was quantified using the phosphoimager analyzer (Molecular Dynamics).
G25 inhibits the activity of recombinant P. falciparum PtdSer decarboxylase. […]

The structures appear in SMILES notation.

As for `C[N+]1(CCCCCCCCCCCCCCCC[N+]2(C)CCCC2)CCCC1.[Br-].[Br-]` [G25, 1,16-hexadecamethylenebis[N-methylpyrrolidinium]dibromide], the “inhibition of choline transport” value in data set [1] (20-fold excess over [methyl-3H]-choline) is listed as 50%; in data set [1] (100-fold excess over [methyl-3H]-choline), 84%. Also, the “cellular accumulation ratio (CAR)” value in data set [2] was ~300. Besides, the “activity of recombinant PfPsd1” value in data set [3] is “steady decrease in the activity”.
